Measured values as given in ChEMBL document CHEMBL5316353, “Antitarget, Anti-SARS-CoV-2 Leads, Drugs, and the Drug Discovery-Genetics Alliance Perspective” (J Med Chem, 2023).

Legend:
[1] = Inhibition of MERS-CoV MPro; design: species or system Middle East respiratory syndrome-related coronavirus
SARS-CoV-2 [2] = assay type: functional, organism-based; conditions: Severe acute respiratory syndrome coronavirus 2, Huh-7
SARS-CoV-2 [3] = assay type: functional, organism-based; conditions: Severe acute respiratory syndrome coronavirus 2, HPAEpiC
Procathepsin L = Procathepsin L (Homo sapiens, UniProt P07711); assay: Inhibition of recombinant cathepsin L (unknown origin)
[4] = target: Transmembrane protease serine 2 (Homo sapiens) (UniProt O15393); assay: Binding affinity to TMPRSS2 (unknown origin) assessed as inhibition constant by fluorescence-based assay
SARS-CoV-2 [5] = assay: microbe, parasite or virus in culture; conditions: Severe acute respiratory syndrome coronavirus 2
[6] = target: Replicase polyprotein 1ab (Severe acute respiratory syndrome coronavirus 2, UniProt P0DTD1); assay: Inhibition of SARS-CoV-2 MPro
[7] = test system: Middle East respiratory syndrome-related coronavirus; assay type: functional, organism-based; conditions: Calu-3
[8] = test system: Middle East respiratory syndrome-related coronavirus; assay type: functional, organism-based, Vero E6; conditions: Vero C1008
[9] = Inhibition of HCoV-229E MPro; design: species or system Human coronavirus 229E
[10] = target: Replicase polyprotein 1ab (Severe acute respiratory syndrome-related coronavirus, UniProt P0C6X7); assay: Binding affinity to SARS-CoV-1 MPro assessed as inhibition constant
[11] = test system: Middle East respiratory syndrome-related coronavirus; assay type: functional, organism-based, Vero E6; conditions: Vero C1008; remark: listed apart in the source
[12] = test system: Middle East respiratory syndrome-related coronavirus; assay: Antiviral activity against MERS-CoV assessed as inhibition of viral growth by cell-cell fusion assay; assay type: functional, organism-based
Human coronavirus OC43 = assay: Antiviral activity against HCoV-OC43 infected in human Huh-7 cells assessed as reduction of viral growth; assay type: functional, organism-based; conditions: Betacoronavirus 1, Huh-7

Chain of Procathepsin L (P07711 whole entry): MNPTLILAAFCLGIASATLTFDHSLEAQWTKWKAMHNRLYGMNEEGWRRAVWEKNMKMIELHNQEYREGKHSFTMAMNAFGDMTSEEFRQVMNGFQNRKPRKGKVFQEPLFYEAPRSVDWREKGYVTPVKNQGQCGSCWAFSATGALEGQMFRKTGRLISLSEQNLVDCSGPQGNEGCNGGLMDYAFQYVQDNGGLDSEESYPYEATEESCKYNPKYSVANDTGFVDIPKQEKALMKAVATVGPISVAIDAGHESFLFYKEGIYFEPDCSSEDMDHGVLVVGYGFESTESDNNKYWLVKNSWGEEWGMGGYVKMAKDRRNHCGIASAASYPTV
Chain of Transmembrane protease serine 2 (Homo sapiens) (O15393 1-255 limits assumed): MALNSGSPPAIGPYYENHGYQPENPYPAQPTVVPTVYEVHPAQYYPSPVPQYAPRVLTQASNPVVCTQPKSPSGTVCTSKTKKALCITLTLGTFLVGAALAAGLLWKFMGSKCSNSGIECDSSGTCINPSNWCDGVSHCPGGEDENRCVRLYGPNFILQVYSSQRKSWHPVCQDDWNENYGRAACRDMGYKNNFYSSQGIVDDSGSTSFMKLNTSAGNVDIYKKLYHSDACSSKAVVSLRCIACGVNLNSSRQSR
Chain of Transmembrane protease serine 2 (Homo sapiens) (O15393 256-492 limits assumed): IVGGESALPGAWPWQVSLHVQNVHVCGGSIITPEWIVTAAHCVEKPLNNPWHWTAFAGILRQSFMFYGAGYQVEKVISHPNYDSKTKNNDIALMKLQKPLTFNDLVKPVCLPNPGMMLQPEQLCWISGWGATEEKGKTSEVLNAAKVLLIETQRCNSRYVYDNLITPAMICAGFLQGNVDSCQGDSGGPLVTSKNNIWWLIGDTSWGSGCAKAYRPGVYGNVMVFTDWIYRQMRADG

For `CC(C)(C)OC(=O)Nc1cccn([C@@H](CC2CC2)C(=O)N[C@@H](C[C@@H]2CCNC2=O)C(=O)C(=O)NCc2ccccc2)c1=O`, the IC50 [1] was 580 nM.

For `CC1(C)[C@@H]2[C@@H](C(=O)N[C@H](C=O)C[C@@H]3CCNC3=O)N(C(=O)COc3ccc(OC(F)(F)F)cc3)C[C@@H]21`, the EC50 (SARS-CoV-2 [2]) was 35.3 nM and the EC50 (SARS-CoV-2 [3]) was 1.2 nM.

`CCOC(=O)[C@H]1OC1C(=O)N[C@@H](CC(C)C)C(=O)NCCC(C)C` (some centres undefined) gave an IC50 (Procathepsin L) of 180 nM.

`N=C(N)c1cccc(C[C@H](NS(=O)(=O)c2cccc(-c3ccc(Cl)cc3Cl)c2)C(=O)N2CCC(CCN)CC2)c1` gave a K [4] of 0.9 nM.

For `CN(C)C(=O)COC(=O)Cc1ccc(OC(=O)c2ccc(NC(=N)N)cc2)cc1` [CAMOSTAT], the EC50 (SARS-CoV-2 [5]) was 700 nM.

Work on `O=C[C@H](C[C@@H]1CCNC1=O)NC(=O)[C@H](Cc1ccccc1)NC(=O)c1cc2ccccc2[nH]1` yielded an IC50 [6] of 34 nM.

`CC[C@H](C)[C@H](NC(=O)[C@H](Cc1ccc(O)cc1)NC(=O)[C@H](CO)NC(=O)[C@H](CCC(=O)O)NC(=O)[C@H](CCC(=O)O)NC(=O)[C@H](CC(C)C)NC(=O)[C@H](CCCCN)NC(=O)[C@H](CCCCN)NC(=O)[C@@H](NC(=O)[C@@H](NC(=O)[C@H](CCC(=O)O)NC(=O)[C@H](CCC(=O)O)NC(=O)[C@H](CC(C)C)NC(=O)[C@H](CCCCN)NC(=O)[C@H](CCCCN)NC(=O)[C@H](CCSC)NC(=O)[C@H](CCC(=O)O)NC(=O)[C@H](Cc1ccc(O)cc1)NC(=O)[C@H](CCC(=O)O)NC(=O)[C@H](CC(C)C)NC(=O)[C@H](CC(=O)O)NC(=O)[C@H](CC(C)C)NC(=O)[C@H](CC(C)C)NC(=O)[C@@H](NC(=O)[C@@H](NC(=O)[C@H](CC(N)=O)NC(=O)[C@@H](NC(=O)[C@H](CCC(N)=O)NC(=O)[C@@H](NC(=O)[C@H](CC(C)C)NC(=O)[C@@H](N)CO)[C@@H](C)O)[C@@H](C)CC)[C@@H](C)O)[C@@H](C)O)C(C)C)C(C)C)C(=O)N[C@@H](CC(=O)O)C(=O)N[C@@H](CC(C)C)C(=O)N[C@@H](CCCCN)C(=O)N[C@@H](CCC(=O)O)C(=O)N[C@@H](CC(C)C)C(=O)O` showed an IC50 [7] of 550 nM and an IC50 [8] of 550 nM.

Compound `COc1cccc2[nH]c(C(=O)N[C@@H](CC(C)C)C(=O)N[C@@H](C[C@@H]3CCNC3=O)C(=O)CO)cc12` [PF-00835231] has an IC50 [9] of 4 nM and a Ki [10] of 4.94 nM.

`CC[C@H](C)[C@H](NC(=O)[C@H](Cc1ccc(O)cc1)NC(=O)[C@H](CO)NC(=O)[C@H](CCC(=O)O)NC(=O)[C@H](CC(N)=O)NC(=O)[C@H](CC(C)C)NC(=O)[C@H](C)NC(=O)[C@H](CCCCN)NC(=O)[C@@H](NC(=O)[C@@H](NC(=O)[C@H](CCC(N)=O)NC(=O)[C@H](CCC(N)=O)NC(=O)[C@H](CC(C)C)NC(=O)[C@H](CO)NC(=O)[C@H](CC(C)C)NC(=O)[C@H](CCSC)NC(=O)[C@H](CCC(=O)O)NC(=O)[C@H](Cc1ccc(O)cc1)NC(=O)[C@@H](NC(=O)[C@H](CC(C)C)NC(=O)[C@H](CC(=O)O)NC(=O)[C@H](CC(C)C)NC(=O)[C@H](CC(C)C)NC(=O)[C@@H](NC(=O)[C@@H](NC(=O)[C@H](CC(N)=O)NC(=O)[C@@H](NC(=O)[C@H](CCC(N)=O)NC(=O)[C@@H](NC(=O)[C@H](CC(C)C)NC(=O)[C@@H](N)CO)[C@@H](C)O)[C@@H](C)CC)[C@@H](C)O)[C@@H](C)O)[C@@H](C)O)C(C)C)C(C)C)C(=O)N[C@@H](CC(=O)O)C(=O)N[C@@H](CC(C)C)C(=O)N[C@@H](CCCCN)C(=O)N[C@@H](CCCCN)C(=O)N[C@@H](CCC(=O)O)C(=O)N[C@@H](CC(C)C)C(=O)O` gave an IC50 [11] of 600 nM and an IC50 [12] of 500 nM.

Compound `COc1cccc2[nH]c(C(=O)N[C@@H](CC(C)C)C(=O)N[C@@H](C[C@@H]3CCCNC3=O)C(=O)COC(=O)c3c(C)cc(C)nc3C)cc12` has an EC50 (Human coronavirus OC43) of 90 nM.
